The values below come from paper PMC9986876, “Prediction of Antileishmanial Compounds: General Model, Preparation, and Evaluation of 2-Acylpyrrole Derivatives” (Journal of Chemical Information and Modeling, 2022).

A value given as a limit tells only on which side of the number the result lay.

In data set [1] the target is Leishmania donovani Promastigotes. Further details: method as in J. Med. Chem., ( 1991), 34, 9, 2798. The following applies: ChEMBL dataset, some flagged Outside typical range, ref J. Med. Chem., ( 1991), 34, 9, 2798, read-out: vij, Ki; cited from earlier work.
In data set [2] the test system is L. donovani (MHOM/IN/80/DD8) promastigotes. Briefly: In vitro promastigote susceptibility assay (resazurin). The format is cell-based. The settings on record: for SI (selectivity index, SI = CC50/IC50): CC50 J774 / IC50 L. donovani promastigotes; for IC50: Leishmania donovani, L. donovani promastigotes, 48 h at 26 °C, triplicate, N/A = not active at 100 μg/mL. The procedure: (§1) The following species of Leishmania were used: L. donovani (MHOM/IN/80/DD8) was purchased (ATCC, USA) and L. amazonensis (MHOM/Br/79/Maria) was kindly provided by Prof. Alfredo Toraño (Instituto de Salud Carlos III, Madrid). Promastigotes were cultured in Schneider’s insect medium supplemented with 10% heat-inactivated fetal bovine serum (FBS) and 1000 U/L of penicillin plus 100 mg/L of streptomycin in 25 mL culture flasks at 26 °C. […] New samples of the compounds have been prepared according to the protocol described above, and subsequently solutions of the chemical compound to be assayed have been dissolved in DMSO at 50 mg/mL. […] Growth control and signal-to-noise control were also included. The final solvent (DMSO) concentrations never exceeded 0.5% (v/v) warranting no effect on parasite proliferation or morphology. After 48 h at 26 °C, 20 μL of a 2.5 mM resazurin solution was added to each well and the plates were returned to the incubator for another 3 h. […] Growth inhibition (%) was calculated by 100 – [(RFU treated wells – RFU signal-to-noise)/(RFU untreated – RFU signal-to-noise) × 100]. All tests were carried out in triplicate. Miltefosine (Sigma-Merck, Madrid, Spain) was used as the reference drug and was evaluated under the same conditions. […] The selectivity index (SI) was calculated as the ratio between cytotoxicity (CC50) and activity against parasites (IC50).
Background: Alamar Blue is a resazurin reagent that responds to reducing activity.

Data set [3] relates to L. amazonensis (MHOM/Br/79/Maria) promastigotes. The description is as above. The format is cell-based. The settings on record: for SI (selectivity index, SI = CC50/IC50): CC50 J774 / IC50 L. amazonensis promastigotes; for IC50: Leishmania amazonensis, L. amazonensis promastigotes, 48 h at 26 °C, triplicate, N/A = not active at 100 μg/mL. As to the method: as §1
Data set [4] is described as follows: Cytotoxicity assay on macrophages (resazurin). The format is cell-based, BALB/c mice. The following applies: mouse, J774 macrophages, values marked e correspond to 100 μg/mL, the higher dose tested. The procedure:
The assay was carried out as previously described.[30] J774 macrophages cell lines were seeded (5 × 10^4 cells/well) in 96-well flat-bottom microplates with 100 μL of RPMI 1640 medium. The cells were allowed to attach for 24 h at 37 °C and 5% CO2, and the medium was replaced by different concentrations of the compounds in 200 μL of medium and exposed for another 24 h. Growth controls and signal-to-noise were also included. Afterward, a volume of 20 μL of 2.5 mM resazurin solution was added, and plates were returned to the incubator for another 3 h to evaluate cell viability. The reduction of resazurin was determined by fluorometry as in the promastigote assay. Each concentration was assayed three times.

A further data set deals with L. donovani amastigotes. As to the kind of experiment: In vitro intracellular amastigote susceptibility assay in J774 macrophages. The format is cell-based. The following applies: for IC50: Leishmania donovani, L. donovani intracellular amastigotes in J774, 48 h, N/A = not active at 100 μg/mL. The procedure: The following species of Leishmania were used: L. donovani (MHOM/IN/80/DD8) was purchased (ATCC, USA) and L. amazonensis (MHOM/Br/79/Maria) was kindly provided by Prof. Alfredo Toraño (Instituto de Salud Carlos III, Madrid). Promastigotes were cultured in Schneider’s insect medium supplemented with 10% heat-inactivated fetal bovine serum (FBS) and 1000 U/L of penicillin plus 100 mg/L of streptomycin in 25 mL culture flasks at 26 °C. The assay was carried out as previously described.[29] Briefly, 5 × 10^4 J774 macrophages and stationary promastigotes in a 1:5 ratio were seeded in each well of a microtiter plate, suspended in 200 μL of culture medium, and incubated for 24 h at 33 °C in a 5% CO2 chamber. After this first incubation, the temperature was increased up to 37 °C for another 24 h. Thereafter, cells were washed several times in culture medium by centrifugation at 1.500g for 5 min in order to remove free non-internalized promastigotes. Finally, the supernatant was replaced by 200 μL/well of culture medium containing 2-fold serial dilutions of the test compounds as in promastigotes assay. Growth control and signal-to-noise were also included. Following incubation for 48 h at 37 °C and 5% CO2, the culture medium was replaced by 200 μL/well of the lysis solution (RPMI-1640 with 0.048% HEPES and 0.01% SDS) and incubated at room temperature for 20 min. Thereafter, the plates were centrifuged at 3.500g for 5 min and the lysis solution was replaced by 200 μL/well of Schneider’s insect medium. The culture plates were then incubated at 26 °C for another 4 days to allow transformation of viable amastigotes into promastigotes and proliferation. Afterward, 20 μL/well of 2.5 mM resazurin was added and incubated for another 3 h. Finally, fluorescence emission was measured and IC50 was estimated as described above. All tests were carried out in triplicate. […] The IC50 and SI were calculated as in the previous section.

The test system of data set [5] is L. amazonensis amastigotes. The data set is described as above. The format is cell-based. The settings on record: for IC50: Leishmania amazonensis, L. amazonensis intracellular amastigotes in J774, 48 h, N/A = not active at 100 μg/mL. The procedure: The following species of Leishmania were used: L. donovani (MHOM/IN/80/DD8) was purchased (ATCC, USA) and L. amazonensis (MHOM/Br/79/Maria) was kindly provided by Prof. Alfredo Toraño (Instituto de Salud Carlos III, Madrid). Promastigotes were cultured in Schneider’s insect medium supplemented with 10% heat-inactivated fetal bovine serum (FBS) and 1000 U/L of penicillin plus 100 mg/L of streptomycin in 25 mL culture flasks at 26 °C. The assay was carried out as previously described.[29] Briefly, 5 × 10^4 J774 macrophages and stationary promastigotes in a 1:5 ratio were seeded in each well of a microtiter plate, suspended in 200 μL of culture medium, and incubated for 24 h at 33 °C in a 5% CO2 chamber. After this first incubation, the temperature was increased up to 37 °C for another 24 h. Thereafter, cells were washed several times in culture medium by centrifugation at 1.500g for 5 min in order to remove free non-internalized promastigotes. Finally, the supernatant was replaced by 200 μL/well of culture medium containing 2-fold serial dilutions of the test compounds as in promastigotes assay. Growth control and signal-to-noise were also included. Following incubation for 48 h at 37 °C and 5% CO2, the culture medium was replaced by 200 μL/well of the lysis solution (RPMI-1640 with 0.048% HEPES and 0.01% SDS) and incubated at room temperature for 20 min. Thereafter, the plates were centrifuged at 3.500g for 5 min and the lysis solution was replaced by 200 μL/well of Schneider’s insect medium. The culture plates were then incubated at 26 °C for another 4 days to allow transformation of viable amastigotes into promastigotes and proliferation. Afterward, 20 μL/well of 2.5 mM resazurin was added and incubated for another 3 h. Finally, fluorescence emission was measured and IC50 was estimated as described above. All tests were carried out in triplicate. Miltefosine (Sigma-Merck, Madrid, Spain) was used as the reference drug and was evaluated under the same conditions. The IC50 and SI were calculated as in the previous section.

The mark [6] stands for this setting: macrophages J774, 24 h exposure, Table 2.
Where [7] appears, read: macrophages J774, Table 3 (amastigote assay table).

As for `NCCC(CN)C[C@H]1OC(n2cnc3c(N)ncnc32)[C@H](O)[C@@H]1O` (some centres unmarked) [CHEMBL611866], the Ki (usually a measure of affinity in units of concentration, obtained from inhibition or displacement) in data set [1] is 1120 µM.
`Cc1cccnc1-n1cccc1C(=O)c1ccc(C(C)(C)C)cc1` [5bc]: the “SI (selectivity index, SI = CC50/IC50)” value in data set [2] is listed as above 1.42; in data set [3], above 10.17. Moreover, the IC50 (as a rule, the concentration at which inhibition is half-maximal) in data set [2] was 221 ± 36.9 µM; in data set [3] it was 30.9 ± 3.11 µM; with L. donovani amastigotes, above 100 µg/mL; in data set [5], 60.6 ± 7.88 µM. Further, the CC50 at 24 h in data set [4] (setting [6]) and in data set [4] (setting [7]) was above 314 µM in each case.
Turning to `CCCCCCCCCCCCCCCCOP(=O)([O-])OCC[N+](C)(C)C` [miltefosine, reference compound], the figures for the 50% inhibitory concentration (IC50) in data set [2], in data set [3] and in data set [5] were 0.24 ± 0.02 µM, 30.7 ± 8.8 µM and 47.6 ± 7.04 µM, respectively. Further, the CC50 (usually the concentration giving 50% cytotoxicity) at 24 h in data set [4] (setting [6]) came out at 55.4 ± 4.19 µM; in data set [4] (setting [7]), 136 ± 10.2 µM.
Consider `O=C(c1ccc(Br)cc1)c1cccn1-c1ncccn1` [5af], for which the “SI (selectivity index, SI = CC50/IC50)” value was above 2.58 in data set [2], above 4.54 in data set [3], above 1.45 with L. donovani amastigotes (CC50 J774 / IC50 L. donovani amastigotes) and above 1.99 in data set [5] (CC50 J774 / IC50 L. amazonensis amastigotes). Besides, the IC50 stood at 118 ± 25.8 µM in data set [2], 67.2 ± 4.94 µM in data set [3], 211 ± 30.3 µM with L. donovani amastigotes and 153 ± 9.11 µM in data set [5]. Also, the CC50 at 24 h in data set [4] (setting [6]) and in data set [4] (setting [7]) was above 305 µM each time.
Consider `Nc1ncnc2c1ncn2C1O[C@H](C[C@@H](N)CC[C@@H](N)C(=O)O)[C@@H](O)[C@H]1O` (some centres unmarked) [CHEMBL608870], for which the Ki in data set [1] was 49 µM.
Take `C=CCCCC(N)C[C@H]1OC(n2cnc3c(N)ncnc32)[C@H](O)[C@@H]1O` (some centres unmarked) [CHEMBL607696]: the Ki in data set [1] is 877 µM.
